Results: patent publication US8653031B2, “Process for the preparation of compositions of AT1 receptor antagonist and Angiotensin—(1-7)” (Universidade Federal de Minas Gerais, priority 2006, dated 2014)

What was measured:
[1] = tested on: spontaneously hypertensive rats (SHR); assay: Antihypertensive test: blood pressure recorded by telemetry in SHR after oral administration; format: in vivo, rat
Method: Male, spontaneously hypertensive rats (SHR) were used, with initial age of 14-16 weeks, from the Centro de Bioterismo (CEBIO, Federal University of Minas Gerais). The animals were kept with free access to food and water and were submitted to a light-dark cycle (12 hours each).
After anesthesia with tribromoethanol (0.25 g/Kg body weight), trichotomy of the abdominal region and local asepsis was made. After adjustment of the surgical field, a median incision of 4 to 6 cm was performed in the abdomen with the implantation of the transducer catheter in the abdominal aorta. After surgery, a veterinary pentabiotic was administered (0.1 ml) via intramuscular route (i.m.). […]
Records of the cardiovascular parameters, average blood pressure and heart rate were obtained by a telemetry data acquisition system (Data Science International). This monitoring system consists of 4 basic elements: (A) a sensor catheter (model—TA11PA-C40) which was inserted into the animal's abdominal aorta for collection, processing and transmission of pulsatile blood pressure; (B) a receiving signal plate (RPC-1); (C) a muliplexor that received the signal from several receiving plates and sent them to (D) the data acquisition system itself, which collected, stored and analyzed the data by means of a specific software, ART-Gold v. […]
The acute cardiovascular effects of administering the LA compound were determined. […]

[2] = molecular target: ACE (Homo sapiens, UniProt P12821); conditions: read-out: IC50 for ACE inhibition; cited from earlier work
Sequence of ACE (P12821 30-1306, species assumed): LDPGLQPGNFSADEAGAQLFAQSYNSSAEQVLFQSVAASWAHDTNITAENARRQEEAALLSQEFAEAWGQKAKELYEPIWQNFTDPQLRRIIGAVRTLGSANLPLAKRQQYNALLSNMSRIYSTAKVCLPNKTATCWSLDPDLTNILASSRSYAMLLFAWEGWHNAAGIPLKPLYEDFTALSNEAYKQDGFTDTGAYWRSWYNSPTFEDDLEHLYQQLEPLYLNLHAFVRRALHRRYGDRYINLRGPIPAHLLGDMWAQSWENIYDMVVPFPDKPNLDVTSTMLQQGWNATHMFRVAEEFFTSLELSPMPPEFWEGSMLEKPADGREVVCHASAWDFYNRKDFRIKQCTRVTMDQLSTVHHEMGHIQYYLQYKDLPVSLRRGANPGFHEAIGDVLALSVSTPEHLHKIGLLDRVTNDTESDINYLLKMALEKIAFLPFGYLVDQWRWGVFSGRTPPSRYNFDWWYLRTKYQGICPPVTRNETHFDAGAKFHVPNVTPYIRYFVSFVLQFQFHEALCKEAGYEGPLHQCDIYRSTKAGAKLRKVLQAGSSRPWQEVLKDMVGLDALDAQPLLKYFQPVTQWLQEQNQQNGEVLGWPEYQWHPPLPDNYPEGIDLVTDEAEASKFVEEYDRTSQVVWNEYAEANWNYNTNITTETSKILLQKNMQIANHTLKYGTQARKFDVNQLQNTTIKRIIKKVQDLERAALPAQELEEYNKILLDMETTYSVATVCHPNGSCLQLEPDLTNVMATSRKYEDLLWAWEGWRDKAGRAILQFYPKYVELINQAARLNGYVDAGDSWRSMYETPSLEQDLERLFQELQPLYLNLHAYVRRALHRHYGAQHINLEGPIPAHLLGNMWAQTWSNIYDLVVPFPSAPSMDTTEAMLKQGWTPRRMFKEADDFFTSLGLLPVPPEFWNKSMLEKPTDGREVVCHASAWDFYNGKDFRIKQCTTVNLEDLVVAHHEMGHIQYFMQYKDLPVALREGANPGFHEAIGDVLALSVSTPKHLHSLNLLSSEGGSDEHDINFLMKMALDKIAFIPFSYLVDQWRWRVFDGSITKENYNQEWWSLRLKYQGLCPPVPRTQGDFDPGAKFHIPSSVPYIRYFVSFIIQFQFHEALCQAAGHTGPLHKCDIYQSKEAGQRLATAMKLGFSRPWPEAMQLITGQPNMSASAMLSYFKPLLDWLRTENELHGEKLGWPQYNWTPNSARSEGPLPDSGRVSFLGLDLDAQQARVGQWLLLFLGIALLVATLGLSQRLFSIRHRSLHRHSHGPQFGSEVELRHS

Compound | reduction in the average blood pressure ([1]; n=2, single oral dose equivalent to 1 mg Kg/day of losartan, after 5 hours (maximum for test compound)) | duration of the blood pressure lowering effect ([1]; single oral dose equivalent to 1 mg Kg/day of losartan) | IC50 [2]
CCCCc1nc(Cl)c(CO)n1Cc1ccc(-c2ccccc2-c2nn[nH]n2)cc1 [losartan] | −10 mmHg | 12 h | –
DRVYIHP [Ang-(1-7), Asp-Arg-Val-Tyr-Ile-His-Pro, heptapeptide of the renin-angiotensin system] | – | – | ~1 µM
